We go through three compounds from patent publication US20190119284A1, “ErbB Inhibitors and Uses Thereof” (The Regents of the University of California, priority 2016, published 2019).

The target in one assay is TYRO3 (Homo sapiens, UniProt Q06418). Nature of the assay: Nanosyn in vitro kinase profiling: TYRO3. It is filed as biochemical. On the procedure:
(§1) This was confirmed by in vitro profiling against a panel of kinases, with compound 2 only showing potent inhibition of EGFR and Ab1 (Table 2).
(§2) In vitro Kinome Screen. In vitro profiling of compound 2 at 100 nM was conducted by Nanosyn.

The target of a further assay is TSSK1 (Homo sapiens, UniProt Q9BXA7). The assay can be described thus: Nanosyn in vitro kinase profiling: TSSK1. It is filed as biochemical. The protocol:
as §1, §2

A further assay has as its target T1, HER2 kinase domain (Homo sapiens, UniProt P04626).
T1 construct: In vitro kinase assays with the HER2 kinase domain (SignalChem) were performed in triplicate; purchased SignalChem
The assay can be described thus: In vitro HER2 Kinase Assay. It is filed as biochemical. Conditions: 50 μM ATP. The protocol: In vitro HER2 Kinase Assay. In vitro kinase assays with the HER2 kinase domain (SignalChem) were performed in triplicate as follows. To 9 μL of a 2.5× solution of kinase and substrate in reaction buffer was added 3 μL of a 5× DMSO or inhibitor dilution in 10% DMSO:water. The inhibitor/kinase solution was incubated at room temperature for 10 minutes. The kinase assay was initiated by the addition of 3 μL of a 5× solution of ATP, and ran for 15 minutes. The final reaction conditions were 50 mM Tris (pH7.4), 5 mM MnCl2, 0.01% Tween-20, 2 mM DTT, 100 μM E4Y substrate (SignalChem), 15 nM HER2, 2% DMSO, 50 μM ATP, and 1 μCi γ^32P-ATP. After 15 minutes, 3 μL of each reaction was pipetted onto phosphocellulose sheets (P81, Whatman) and allowed to dry. The sheets were then washed 4×5 min with a solution of 0.5% phosphoric acid, dried, and exposed to a phosphor screen overnight. Phosphorimaging was conducted on a Typhoon 9500, image intensities were quantified in ImageQuant 5.2, normalized to the DMSO control and plotted in GraphPad Prism 6.

A further assay has as its target ALK (Homo sapiens, UniProt Q9UM73). Nature of the assay: Nanosyn in vitro kinase profiling: ALK. It is filed as biochemical. The protocol: as §1, §2
The next assay concerns the target DYRK1B (Homo sapiens, UniProt Q9Y463). Nature of the assay: Nanosyn in vitro kinase profiling: DYRK1B. It is filed as biochemical. The protocol:
as §1, §2

Another assay has as its target PRKACA (Homo sapiens, UniProt P17612). Nature of the assay: Nanosyn in vitro kinase profiling: PRKACA. It is filed as biochemical. The following applies: compound at 1 μM.
The target of a further assay is PI3K-ALPHA (Homo sapiens, UniProt P42336). The assay can be described thus: Nanosyn in vitro kinase profiling: PI3K-ALPHA. Conditions: compound at 1 μM. It is filed as biochemical.
For assay [1], the target named is T2, EGFR gatekeeper to methionine mutant in NCI-H1975 cells (Homo sapiens, UniProt P00533, L858R/T790M).
T2 construct: mutation of the EGFR gatekeeper to methionine in NCI-H1975 cells; endogenous in cells; host or cells: NCI-H1975
Nature of the assay: EGFR signaling and proliferation in NCI-H1975 cells. It is filed as cell-based.

Assay [2] addresses mutationally activated forms of EGFR (Homo sapiens, UniProt P00533, DEL746-750). The assay can be described thus: EGFR phosphosite signaling in HCC 827 cells. It is filed as cell-based. Set-up: endogenous in cells; host or cells: HCC 827 (A1). Conditions: concentration giving near complete inhibition.
Assay [3] has as its system HER2 overexpressing cell lines (BT-474, SK-BR-3). Nature of the assay: cell death with CellTox green (Incucyte Zoom), 72 h +/- NRG. It is filed as cell-based. Conditions: BT-474 and SK-BR-3, 72 h +/- NRG. On the procedure: FIGS. 15A-15C. NRG rescues HER2 overexpressing cell lines from type 1.5 inhibitors but not compound 3. FIG. 15A. BT-474 cells were treated with the indicated concentrations of drugs in the presence or absence of NRG for 72 h. Cell death was determined using CellTox green with the Incucyte Zoom data are represented as mean values±SD (n=3). FIG. 15B. Same experiment as in FIG. 15A, but with SK-BR-3 cells. c. Cells were treated with 1 μM of the indicated inhibitor in the presence of varying concentrations of NRG. The lapatininb data is reproduced from FIG. 1C (mean value±SD, n=3).

A further assay relates to NCI-H1781 cells. The assay can be described thus: 72 h proliferation of NCI-H1781 cells. It is filed as cell-based. The following applies: NCI-H1781, 72 h.
Assay [4] has as its system 2YFTM/HER3wt and 2YFTM/3TM Ba/F3 cells. Nature of the assay: Ba/F3 proliferation assay, HER2 gatekeeper mutant lines. It is filed as cell-based. The following applies: Ba/F3 lines with methionine gatekeeper mutation in HER2. On the procedure:
Proliferation Assays. […] For all normalized assays, proliferation was normalized to the DMSO control condition. All graphs were plotted in GraphPad Prism 6 and fit with a non-linear regression of the log(inhibitor) vs response with a variable slope where shown. All graphs are averages (+/−standard deviation) of biological triplicates each performed in technical triplicate unless otherwise noted. If only one biological replicate was performed standard deviations were derived from the technical replicates.

ALK, sequence (Q9UM73 19-1620, species assumed): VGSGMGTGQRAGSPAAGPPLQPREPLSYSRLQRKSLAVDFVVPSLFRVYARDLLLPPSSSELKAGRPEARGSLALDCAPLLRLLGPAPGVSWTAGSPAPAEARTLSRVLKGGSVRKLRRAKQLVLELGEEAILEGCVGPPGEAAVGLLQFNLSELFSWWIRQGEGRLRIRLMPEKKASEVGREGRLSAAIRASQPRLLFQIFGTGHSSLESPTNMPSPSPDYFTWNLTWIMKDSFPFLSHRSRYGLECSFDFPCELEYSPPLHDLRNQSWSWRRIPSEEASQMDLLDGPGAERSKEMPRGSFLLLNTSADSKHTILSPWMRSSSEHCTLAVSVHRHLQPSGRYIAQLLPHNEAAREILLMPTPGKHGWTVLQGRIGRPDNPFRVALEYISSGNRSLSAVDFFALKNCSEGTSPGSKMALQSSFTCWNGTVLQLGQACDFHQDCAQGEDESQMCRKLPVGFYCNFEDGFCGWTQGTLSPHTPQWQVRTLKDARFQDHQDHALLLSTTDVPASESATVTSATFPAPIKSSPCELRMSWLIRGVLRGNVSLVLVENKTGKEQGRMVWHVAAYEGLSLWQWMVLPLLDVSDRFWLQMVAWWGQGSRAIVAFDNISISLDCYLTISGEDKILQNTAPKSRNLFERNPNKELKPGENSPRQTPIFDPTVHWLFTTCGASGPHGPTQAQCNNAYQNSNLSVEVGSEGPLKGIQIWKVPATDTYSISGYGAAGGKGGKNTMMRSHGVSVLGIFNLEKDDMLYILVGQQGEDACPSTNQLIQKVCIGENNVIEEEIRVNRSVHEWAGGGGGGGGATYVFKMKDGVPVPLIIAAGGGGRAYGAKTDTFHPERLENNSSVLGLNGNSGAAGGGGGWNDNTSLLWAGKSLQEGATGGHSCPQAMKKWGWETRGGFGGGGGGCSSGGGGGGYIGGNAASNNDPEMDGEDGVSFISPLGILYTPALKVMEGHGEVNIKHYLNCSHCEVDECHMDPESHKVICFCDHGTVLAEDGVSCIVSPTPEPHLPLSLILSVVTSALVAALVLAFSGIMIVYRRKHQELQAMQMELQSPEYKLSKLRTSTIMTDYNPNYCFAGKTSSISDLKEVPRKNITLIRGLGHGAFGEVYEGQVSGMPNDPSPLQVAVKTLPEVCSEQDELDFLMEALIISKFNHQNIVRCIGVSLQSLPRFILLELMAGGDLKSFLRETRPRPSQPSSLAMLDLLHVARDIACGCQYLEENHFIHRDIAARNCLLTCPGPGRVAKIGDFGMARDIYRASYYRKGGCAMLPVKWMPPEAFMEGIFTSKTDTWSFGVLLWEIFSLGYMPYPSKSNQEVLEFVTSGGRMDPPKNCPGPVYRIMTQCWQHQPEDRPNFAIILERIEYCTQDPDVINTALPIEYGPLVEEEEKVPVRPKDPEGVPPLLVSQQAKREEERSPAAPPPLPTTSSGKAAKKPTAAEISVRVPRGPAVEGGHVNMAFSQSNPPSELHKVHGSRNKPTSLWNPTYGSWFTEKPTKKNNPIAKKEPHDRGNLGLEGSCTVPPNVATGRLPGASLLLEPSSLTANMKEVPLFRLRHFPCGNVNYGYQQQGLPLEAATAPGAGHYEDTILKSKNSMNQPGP
TYRO3, sequence (Q06418 41-890, species assumed): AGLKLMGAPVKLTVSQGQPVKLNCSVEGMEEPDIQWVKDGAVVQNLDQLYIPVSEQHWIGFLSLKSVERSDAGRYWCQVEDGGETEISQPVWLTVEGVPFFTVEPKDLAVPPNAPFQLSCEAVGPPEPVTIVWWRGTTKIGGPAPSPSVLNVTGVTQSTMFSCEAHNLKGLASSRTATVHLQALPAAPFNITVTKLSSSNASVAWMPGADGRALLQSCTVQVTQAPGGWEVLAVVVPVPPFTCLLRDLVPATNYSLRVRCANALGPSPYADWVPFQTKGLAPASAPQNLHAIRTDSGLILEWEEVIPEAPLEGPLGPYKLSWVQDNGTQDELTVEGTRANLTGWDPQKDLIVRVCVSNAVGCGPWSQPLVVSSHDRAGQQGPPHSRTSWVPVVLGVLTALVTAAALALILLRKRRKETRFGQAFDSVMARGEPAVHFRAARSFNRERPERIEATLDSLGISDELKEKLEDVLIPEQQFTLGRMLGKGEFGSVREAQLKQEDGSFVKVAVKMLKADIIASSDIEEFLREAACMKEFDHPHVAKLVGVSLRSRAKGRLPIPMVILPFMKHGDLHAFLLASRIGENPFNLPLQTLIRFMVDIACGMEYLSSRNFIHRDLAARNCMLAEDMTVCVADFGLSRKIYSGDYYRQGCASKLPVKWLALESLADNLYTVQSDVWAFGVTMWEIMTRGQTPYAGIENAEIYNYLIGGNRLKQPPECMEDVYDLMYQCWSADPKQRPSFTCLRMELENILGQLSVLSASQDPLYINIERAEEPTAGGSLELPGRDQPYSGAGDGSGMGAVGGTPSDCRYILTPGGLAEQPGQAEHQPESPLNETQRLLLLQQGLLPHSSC
DYRK1B, sequence (Q9Y463 whole entry, species assumed): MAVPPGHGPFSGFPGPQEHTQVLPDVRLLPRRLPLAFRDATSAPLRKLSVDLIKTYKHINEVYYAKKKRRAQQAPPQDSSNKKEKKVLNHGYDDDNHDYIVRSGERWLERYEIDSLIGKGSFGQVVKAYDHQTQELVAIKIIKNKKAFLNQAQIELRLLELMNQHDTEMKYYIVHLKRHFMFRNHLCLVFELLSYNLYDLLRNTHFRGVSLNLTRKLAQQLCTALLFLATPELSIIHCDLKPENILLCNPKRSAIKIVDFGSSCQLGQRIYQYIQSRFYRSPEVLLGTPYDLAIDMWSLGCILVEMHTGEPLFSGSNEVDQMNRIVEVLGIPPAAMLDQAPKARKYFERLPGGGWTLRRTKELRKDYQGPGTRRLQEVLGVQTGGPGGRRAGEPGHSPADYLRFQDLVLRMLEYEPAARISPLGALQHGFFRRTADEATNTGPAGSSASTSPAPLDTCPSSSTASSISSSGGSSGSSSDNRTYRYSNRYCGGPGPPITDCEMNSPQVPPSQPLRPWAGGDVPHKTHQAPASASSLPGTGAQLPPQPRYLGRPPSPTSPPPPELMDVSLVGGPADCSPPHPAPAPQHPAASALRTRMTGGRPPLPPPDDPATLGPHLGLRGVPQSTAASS
T2 sequence (P00533 25-1210 T790M/L858R): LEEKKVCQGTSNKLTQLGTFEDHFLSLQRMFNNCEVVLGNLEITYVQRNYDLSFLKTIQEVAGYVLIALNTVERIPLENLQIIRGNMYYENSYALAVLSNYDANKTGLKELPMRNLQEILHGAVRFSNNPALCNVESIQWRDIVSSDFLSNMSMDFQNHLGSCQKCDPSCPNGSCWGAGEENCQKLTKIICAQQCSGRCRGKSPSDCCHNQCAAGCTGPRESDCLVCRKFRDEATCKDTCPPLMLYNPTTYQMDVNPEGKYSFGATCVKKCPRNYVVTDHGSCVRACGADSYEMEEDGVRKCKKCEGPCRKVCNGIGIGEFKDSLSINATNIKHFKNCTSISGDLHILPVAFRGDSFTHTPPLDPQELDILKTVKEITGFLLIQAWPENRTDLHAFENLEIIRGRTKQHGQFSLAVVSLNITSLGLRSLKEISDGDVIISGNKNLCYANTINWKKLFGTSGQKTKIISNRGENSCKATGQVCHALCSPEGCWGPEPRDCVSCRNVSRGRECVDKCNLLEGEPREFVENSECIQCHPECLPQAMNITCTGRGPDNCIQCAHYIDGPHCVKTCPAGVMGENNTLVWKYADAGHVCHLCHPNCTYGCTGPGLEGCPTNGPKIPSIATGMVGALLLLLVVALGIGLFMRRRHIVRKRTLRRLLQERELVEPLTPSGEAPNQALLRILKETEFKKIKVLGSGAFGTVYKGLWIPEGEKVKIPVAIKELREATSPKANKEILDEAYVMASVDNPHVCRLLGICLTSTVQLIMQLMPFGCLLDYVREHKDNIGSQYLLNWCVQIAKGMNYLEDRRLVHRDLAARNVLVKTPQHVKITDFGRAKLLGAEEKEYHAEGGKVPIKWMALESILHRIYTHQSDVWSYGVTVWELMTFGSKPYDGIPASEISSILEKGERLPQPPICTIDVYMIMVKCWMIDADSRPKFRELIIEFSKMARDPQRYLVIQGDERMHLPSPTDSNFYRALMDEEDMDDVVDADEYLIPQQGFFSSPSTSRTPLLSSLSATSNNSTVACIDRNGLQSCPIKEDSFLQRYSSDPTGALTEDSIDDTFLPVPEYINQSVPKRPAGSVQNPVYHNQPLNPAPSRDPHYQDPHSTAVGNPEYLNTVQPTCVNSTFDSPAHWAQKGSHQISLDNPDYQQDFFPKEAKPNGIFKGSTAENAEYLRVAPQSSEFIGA
TSSK1, sequence (Q9BXA7 whole entry, species assumed): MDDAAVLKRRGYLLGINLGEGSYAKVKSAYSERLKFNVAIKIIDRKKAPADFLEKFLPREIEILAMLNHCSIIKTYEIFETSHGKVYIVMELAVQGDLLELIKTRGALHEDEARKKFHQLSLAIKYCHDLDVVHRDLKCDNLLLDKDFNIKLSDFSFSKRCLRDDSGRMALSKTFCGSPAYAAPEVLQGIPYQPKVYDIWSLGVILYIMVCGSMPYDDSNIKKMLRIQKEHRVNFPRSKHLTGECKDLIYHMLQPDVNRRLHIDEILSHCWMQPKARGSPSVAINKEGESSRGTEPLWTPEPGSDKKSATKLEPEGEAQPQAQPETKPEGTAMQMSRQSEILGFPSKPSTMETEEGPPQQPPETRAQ
T1 sequence (P04626 720-987 limits assumed): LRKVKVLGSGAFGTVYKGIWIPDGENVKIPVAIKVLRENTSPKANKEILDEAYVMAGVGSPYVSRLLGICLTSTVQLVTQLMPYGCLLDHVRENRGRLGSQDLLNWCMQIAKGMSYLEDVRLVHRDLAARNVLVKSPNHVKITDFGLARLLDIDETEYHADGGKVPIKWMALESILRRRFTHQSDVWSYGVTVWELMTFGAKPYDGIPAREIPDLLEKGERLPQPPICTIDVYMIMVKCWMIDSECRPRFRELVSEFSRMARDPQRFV

In general, inhibition refers to the relative decrease from the control value, in per cent. Take `COc1ccc(-c2ccco2)cc1Nc1ncnc2[nH]nc(-c3ccco3)c12` [compound 2, 3-(furan-2-yl)-N-(5-(furan-2-yl)-2-methoxyphenyl)-1H-pyrazolo[3,4-d]pyrimidin-4-amine]: the inhibition at 0.1 µM is 3.29% on TYRO3 (compound at 100 nM), 0.665% at TSSK1 (compound at 100 nM), 6.14% on ALK (compound at 100 nM) and 4.01% on DYRK1B (compound at 100 nM). The inhibition at 1 µM against TYRO3 (compound at 1 μM) was 5.56%; on TSSK1 (compound at 1 μM), -3.06%; on ALK (compound at 1 μM), 19.8%; against DYRK1B (compound at 1 μM), 22.6%. In addition, the “potency against HER2 in vitro” value on HER2 kinase domain was “equipotent to lapatinib”.
Regarding `COc1ccc(-c2ccoc2)cc1Nc1ncnc2[nH]cc(-c3cc[nH]n3)c12` [compound 3, N-(5-(furan-3-yl)-2-methoxyphenyl)-5-(1H-pyrazol-3-yl)-7H-pyrrolo[2,3-d]pyrimidin-4-amine], the inhibition at 1 µM on PRKACA is 20%; at PI3K-ALPHA, 6%. Also, the “p-845 site inhibition at concentrations” value in [1] (EGFR gatekeeper methionine) is “less than 1 μM”. In addition, the “effect of EGFR gatekeeper methionine mutation on inhibition” value in assay [1] (signaling and proliferation) is “caused a shift in the ability of compound 3 to inhibit both signaling and proliferation”. Also, in assay [2], the “near complete inhibition of multiple phosphosites on EGFR” value is on record as “less than 10 nM”. For the same compound, the “rescue by NRG” value in [3] is on record as “not”. For the same compound, in the assay with NCI-H1781 cells, the “sensitivity of cell proliferation” value is “sensitive”.
Regarding `CS(=O)(=O)CCNCc1ccc(-c2ccc3ncnc(Nc4ccc(OCc5cccc(F)c5)c(Cl)c4)c3c2)o1` [lapatinib], the inhibition of proliferation entry in assay [4] is recorded as “unable to inhibit the proliferation”.
